Assay results published in US20150157739A1, “Imidazo[2,1]thiazol-3-one derivatives” (Hoffmann-La Roche Inc., priority 2012, published 2015).

What was measured:
[1] = molecular target: T1, aggregated synthetic Aβ40 (Homo sapiens, UniProt P05067); assay: Thiazin-red R displacement fluorescence assay on aggregated A-beta; format: binding; settings: displacement of Thiazin-red R from aggregated Aβ40; compound 0.3 nM to 10000 nM; 30 min room temperature; Ex 531 nm/Em 595 nm
T1 construct: Synthetic Aβ40 is aggregated at a concentration of 50 μM
T1 sequence (P05067 672-711 limits assumed): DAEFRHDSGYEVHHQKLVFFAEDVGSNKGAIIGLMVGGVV
Description: (§1) Assay for Determination of […] for Tau and A-Beta
(§2) Recombinant human-microtubule associated protein Tau purified from E. coli is aggregated at a concentration of 5 μM with Arachidonic Acid (100 μM) in Tris 10 mM pH8, 24 h at 37° C. Synthetic Aβ40 is aggregated at a concentration of 50 μM with Arachidonic Acid (100 μM) in Tris 10 mM pH8, for three days at 37° C., under shaking at 150 rpm.
(§3) A saturation analysis of Thiazin-red R to the aggregated proteins is done to determine the affinity (Kd) of the Thiazin-red R to the aggregated protein.
(§4) Thiazin-red R will be added at the concentration corresponding to the Kd to the respective aggregated protein binding site, to induce a fluorescent signal that can be inhibited by the addition of a displacer compound.
(§5) In parallel, auto fluorescence of the compound is measured together with the aggregated proteins, but without Thiazin-red R. As negative control, ligand and aggregated protein is used and as positive control, Thiazin-red R, reference compound with known activity and aggregated protein is used.
(§6) Assay is performed in Perkin Elmer OptiPlate 384, black, 45 ul assay volume, assay buffer is DPBS no CaCl2 no MgCl2 (GIBCO N. 14020). Tested compounds are diluted in DMSO and 2 μl is added to the assay ([…]). Assay is started by the addition of the aggregated protein (competitive condition). Plates are shortly shacked (1 min with Sterico variomag teleshake) and incubated for 30 min at room temperature. Measurement are done with En:Vision (Perkin Elmer), at Excitation 531 nm/Emission 595 nm.

[2] = molecular target: T2, aggregated recombinant human-microtubule associated protein Tau (Homo sapiens, UniProt P10636); assay: Thiazin-red R displacement fluorescence assay on aggregated Tau; format: binding; settings: displacement of Thiazin-red R from aggregated Tau; compound 0.3 nM to 10000 nM; 30 min room temperature; Ex 531 nm/Em 595 nm
T2 construct: Recombinant human-microtubule associated protein Tau purified from E. coli is aggregated at a concentration of 5 μM with Arachidonic Acid (100 μM) in Tris 10 mM pH8, 24 h at 37° C
T2 sequence (P10636 whole entry): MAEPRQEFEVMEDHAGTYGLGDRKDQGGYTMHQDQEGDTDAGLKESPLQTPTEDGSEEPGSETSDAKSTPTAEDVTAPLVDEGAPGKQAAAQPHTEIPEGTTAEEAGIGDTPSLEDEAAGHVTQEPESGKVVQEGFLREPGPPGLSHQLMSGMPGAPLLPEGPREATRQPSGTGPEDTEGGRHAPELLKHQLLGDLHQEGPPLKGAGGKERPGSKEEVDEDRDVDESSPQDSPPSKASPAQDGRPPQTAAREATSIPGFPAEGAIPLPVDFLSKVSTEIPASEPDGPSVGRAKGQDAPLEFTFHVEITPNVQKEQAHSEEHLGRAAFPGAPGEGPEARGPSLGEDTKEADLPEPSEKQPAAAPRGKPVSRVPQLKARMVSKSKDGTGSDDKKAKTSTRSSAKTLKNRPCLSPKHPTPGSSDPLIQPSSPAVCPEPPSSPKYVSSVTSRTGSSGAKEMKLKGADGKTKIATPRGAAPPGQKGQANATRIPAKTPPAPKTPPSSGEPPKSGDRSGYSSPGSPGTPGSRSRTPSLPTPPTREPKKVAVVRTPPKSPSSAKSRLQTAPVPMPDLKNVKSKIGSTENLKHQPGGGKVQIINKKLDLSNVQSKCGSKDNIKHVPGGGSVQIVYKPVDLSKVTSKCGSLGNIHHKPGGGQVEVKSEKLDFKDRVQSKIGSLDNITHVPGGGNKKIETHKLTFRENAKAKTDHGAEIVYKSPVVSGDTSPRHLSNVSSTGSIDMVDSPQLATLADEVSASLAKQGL
Description: as §1, §2, §3, §4, §5, §6

Row | SMILES | IC50 [1] | IC50 [2]
1 | COc1cc(/C=c2\sc3nc(-c4ccc(Cl)cc4)cn3c2=O)cc(Cl)c1O [Example 6, 6-(4-Chloro-phenyl)-2-[1-(3-chloro-4-hydroxy-5-methoxy-phenyl)-meth-(Z)-ylidene]-imidazo[2,1-b]thiazol-3-one] | 32 nM | 2 nM
2 | COc1cc(/C=c2\sc3nc(-c4ccncc4)cn3c2=O)cc(Cl)c1O [Example 68, 2-[1-(3-Chloro-4-hydroxy-5-methoxy-phenyl)-meth-(Z)-ylidene]-6-(pyridin-4-yl)-imidazo[2,1-b]thiazol-3-one] | 300 nM | 3 nM
3 | CCOc1cc(/C=c2\sc3nc(-c4ccc(Cl)cc4)cn3c2=O)cc(OC)c1O [Example 26, 6-(4-Chloro-phenyl)-2-[1-(3-ethoxy-4-hydroxy-5-methoxy-phenyl)-meth-(Z)-ylidene]-imidazo[2,1-b]thiazol-3-one] | 4 nM | 2 nM
4 | COc1cc(/C=c2\sc3nc(-c4cccnc4)cn3c2=O)cc(Br)c1O [Example 72, 2-[1-(3-Bromo-4-hydroxy-5-methoxy-phenyl)-meth-(Z)-ylidene]-6-(pyridin-3-yl)-imidazo[2,1-b]thiazol-3-one] | 229 nM | 3 nM
5 | COc1cc(/C=c2\sc3nc(-c4cccc(C(F)(F)F)c4)cn3c2=O)cc(Cl)c1O [Example 24, 2-[1-(3-Chloro-4-hydroxy-5-methoxy-phenyl)-meth-(Z)-ylidene]-6-(3-trifluoromethyl-phenyl)-imidazo[2,1-b]thiazol-3-one] | 123 nM | 3 nM
6 | COc1cc(/C=c2\sc3nc(-c4cccc(C(F)(F)F)c4)cn3c2=O)cc(F)c1O [Example 41, 2-[1-(3-fluoro-4-hydroxy-5-methoxy-phenyl)-meth-(Z)-ylidene]-6-(3-(trifluoromethyl)-phenyl)-imidazo[2,1-b]thiazol-3-one] | 1810 nM | 16 nM
7 | COc1cc(/C=c2\sc3nc(-c4ccc(C#N)cc4)cn3c2=O)cc(Cl)c1O [Example 87, 4-{2-[1-(3-Chloro-4-hydroxy-5-methoxy-phenyl)-meth-(Z)-ylidene]-3-oxo-2,3-dihydro-imidazo[2,1-b]thiazol-6-yl}-benzonitrile] | 6 nM | 0.3 nM
8 | CCCOc1cc(/C=c2\sc3nc(-c4ccncc4)cn3c2=O)cc(Cl)c1O [Example 111, 2-[1-(3-Chloro-4-hydroxy-5-propoxy-phenyl)-meth-(Z)-ylidene]-6-pyridin-4-yl-imidazo[2,1-b]thiazol-3-one] | 1450 nM | 17 nM
9 | COc1cc(/C=c2\sc3nc(-c4ccc(C(=O)N(C)CCOCCF)cc4)cn3c2=O)cc(Cl)c1O [Example 23, 4-{2-[1-(3-Chloro-4-hydroxy-5-methoxy-phenyl)-meth-(Z)-ylidene]-3-oxo-2,3-dihydro-imidazo[2,1-b]thiazol-6-yl}-N-[2-(2-fluoro-ethoxy)-ethyl]-N-methyl-benzamide] | 328 nM | 26 nM
10 | COc1cc(/C=c2\sc3nc(-c4ccncc4)cn3c2=O)cc(OC)c1O [Example 1, 2-[1-(4-Hydroxy-3,5-dimethoxy-phenyl)-meth-(Z)-ylidene]-6-pyridin-4-yl-imidazo[2,1-b]thiazol-3-one] | 93 nM | 5 nM
11 | COc1cc(/C=c2\sc3nc(-c4ccnc(C)c4)cn3c2=O)cc(Cl)c1O [Example 75, 2-[1-(3-Chloro-4-hydroxy-5-methoxy-phenyl)-meth-(Z)-ylidene]-6-(2-methylpyridin-4-yl)-imidazo[2,1-b]thiazol-3-one] | 122 nM | 1.3 nM
12 | COc1cc(/C=c2\sc3nc(-c4ccc(C(=O)N(C)C)cc4)cn3c2=O)cc(Cl)c1O [Example 126, 4-{2-[1-(3-Chloro-4-hydroxy-5-methoxy-phenyl)-meth-(Z)-ylidene]-3-oxo-2,3-dihydro-imidazo[2,1-b]thiazol-6-yl}-N,N-dimethyl-benzamide] | 550 nM | 28 nM
13 | COc1cc(/C=c2\sc3nc(-c4ccc(C(=O)NCCCF)cc4)cn3c2=O)cc(Cl)c1O [Example 117, 4-{2-[1-(3-Chloro-4-hydroxy-5-methoxy-phenyl)-meth-(Z)-ylidene]-3-oxo-2,3-dihydro-imidazo[2,1-b]thiazol-6-yl}-N-(3-fluoro-propyl)-benzamide] | 643 nM | 5 nM
14 | CCN(CC)c1ccc(-c2cn3c(=O)/c(=C/c4cc(Cl)c(O)c(OC)c4)sc3n2)cc1 [Example 91, 2-[1-(3-Chloro-4-hydroxy-5-methoxy-phenyl)-meth-(Z)-ylidene]-6-(4-(diethylamino)phenyl)-imidazo[2,1-b]thiazol-3-one] | 184 nM | 20 nM
15 | COc1cc(/C=c2\sc3nc(-c4cc(C)nc(C)c4)cn3c2=O)cc(F)c1O [Example 64, 2-[1-(3-Fluoro-4-hydroxy-5-methoxy-phenyl)-meth-(Z)-ylidene]-6-(2,6-dimethyl-pyridin-4-yl)-imidazo[2,1-b]thiazol-3-one] | 406 nM | 32 nM
16 | COc1cc(/C=c2\sc3nc(-c4cccc(C#N)c4)cn3c2=O)cc(Cl)c1O [Example 44, 3-{2-[1-(3-Chloro-4-hydroxy-5-methoxy-phenyl)-meth-(Z)-ylidene]-3-oxo-2,3-dihydro-imidazo[2,1-b]thiazol-6-yl}-benzonitrile] | 24000 nM | 6 nM
17 | COc1cc(/C=c2\sc3nc(-c4ccc(C(=O)NCCN)cc4)cn3c2=O)cc(Cl)c1O [Example 151, N-(2-Amino-ethyl)-4-{2-[1-(3-chloro-4-hydroxy-5-methoxy-phenyl)-meth-(Z)-ylidene]-3-oxo-2,3-dihydro-imidazo[2,1-b]thiazol-6-yl}-benzamide] | 24 nM | 12 nM
18 | COc1cc(/C=c2\sc3nc(-c4ccc(N(C)C)cc4)cn3c2=O)cc(Cl)c1O [Example 93, 2-[1-(3-Chloro-4-hydroxy-5-methoxy-phenyl)-meth-(Z)-ylidene]-6-(4-(dimethylamino)phenyl)-imidazo[2,1-b]thiazol-3-one] | 29 nM | 30 nM
19 | CCCNC(=O)c1ccc(-c2cn3c(=O)/c(=C/c4cc(Cl)c(O)c(OC)c4)sc3n2)cc1 [Example 115, 4-{2-[1-(3-Chloro-4-hydroxy-5-methoxy-phenyl)-meth-(Z)-ylidene]-3-oxo-2,3-dihydro-imidazo[2,1-b]thiazol-6-yl}-N-propyl-benzamide] | 356 nM | 2 nM
20 | COc1cc(/C=c2\sc3nc(-c4cccc(C(=O)N(C)CCc5cccc(F)c5)c4)cn3c2=O)cc(Cl)c1O [Example 118, 3-{2-[1-(3-Chloro-4-hydroxy-5-methoxy-phenyl)-meth-(Z)-ylidene]-3-oxo-2,3-dihydro-imidazo[2,1-b]thiazol-6-yl}-N-[2-(3-fluoro-phenyl)-ethyl]-N-methyl-benzamide] | > 10000 nM | 12.9 nM
21 | COc1cc(/C=c2\sc3nc(-c4ccc(C(N)=O)cc4)cn3c2=O)cc(Cl)c1O [Example 101, 4-{2-[1-(3-Chloro-4-hydroxy-5-methoxy-phenyl)-meth-(Z)-ylidene]-3-oxo-2,3-dihydro-imidazo[2,1-b]thiazol-6-yl}-benzamide] | 792 nM | 2 nM
22 | COc1cc(/C=c2\sc3nc(-c4ccc(C(=O)N(C)CCF)cc4)cn3c2=O)cc(Cl)c1O [Example 125, 4-{2-[1-(3-Chloro-4-hydroxy-5-methoxy-phenyl)-meth-(Z)-ylidene]-3-oxo-2,3-dihydro-imidazo[2,1-b]thiazol-6-yl}-N-(2-fluoro-ethyl)-N-methyl-benzamide] | 621 nM | 17 nM
23 | COc1cc(/C=c2\sc3nc(-c4ccc(Cl)cc4)cn3c2=O)cc(Br)c1O [Example 7, 6-(4-Chloro-phenyl)-2-[1-(3-bromo-4-hydroxy-5-methoxy-phenyl)-meth-(Z)-ylidene]-imidazo[2,1-b]thiazol-3-one] | 18 nM | 2 nM
24 | O=c1/c(=C/c2cc(F)c(O)c(OCCCF)c2)sc2nc(-c3ccncc3)cn12 [Example 124, 2-[1-(3-Fluoro-5-(3-fluoropropoxy)-4-hydroxy-phenyl)-meth-(Z)-ylidene]-6-pyridin-4-yl-imidazo[2,1-b]thiazol-3-one] | 1230 nM | 17 nM
25 | COc1cc(/C=c2\sc3nc(-c4cccc(OCCOCCOCCF)c4)cn3c2=O)cc(Cl)c1O [Example 95, 2-[1-(3-Chloro-4-hydroxy-5-methoxy-phenyl)-meth-(Z)-ylidene]-6-(3-{2-[2-(2-fluoro-ethoxy)-ethoxy]-ethoxy}-phenyl)-imidazo[2,1-b]thiazol-3-one] | 2150 nM | 28 nM
